From patent publication US5321123A, “Protein S polypeptides and anti-peptide antibodies that inhibit protein S binding to C4B binding protein, diagnostic systems and therapeutic methods” (The Scripps Research Institute, priority 1992, dated 1994)
Read-outs that look alike come from different tables or passages of the source. Blank lines part the entries; values can stand above or below the compound they belong to. Bridge positions count the residues as written; N and C are the ends. Peptide text beside a SMILES is read from it.

Key:
[1] = biological target: T1, PS:C4BP complex (Homo sapiens, UniProt P04003+P20851); assay: Peptide inhibition of b-C4BP binding to PS-coated wells; conditions: b-C4BP 1 μg/ml, peptide 0-500 μM
T1 construct: Purified human C4BP was obtained from 5 liters (l) of human citrated plasma; from tissue; host or cells: human citrated plasma (C4BP); protein S by the method of Schwarz et al
T1 sequence (P04003 49-597): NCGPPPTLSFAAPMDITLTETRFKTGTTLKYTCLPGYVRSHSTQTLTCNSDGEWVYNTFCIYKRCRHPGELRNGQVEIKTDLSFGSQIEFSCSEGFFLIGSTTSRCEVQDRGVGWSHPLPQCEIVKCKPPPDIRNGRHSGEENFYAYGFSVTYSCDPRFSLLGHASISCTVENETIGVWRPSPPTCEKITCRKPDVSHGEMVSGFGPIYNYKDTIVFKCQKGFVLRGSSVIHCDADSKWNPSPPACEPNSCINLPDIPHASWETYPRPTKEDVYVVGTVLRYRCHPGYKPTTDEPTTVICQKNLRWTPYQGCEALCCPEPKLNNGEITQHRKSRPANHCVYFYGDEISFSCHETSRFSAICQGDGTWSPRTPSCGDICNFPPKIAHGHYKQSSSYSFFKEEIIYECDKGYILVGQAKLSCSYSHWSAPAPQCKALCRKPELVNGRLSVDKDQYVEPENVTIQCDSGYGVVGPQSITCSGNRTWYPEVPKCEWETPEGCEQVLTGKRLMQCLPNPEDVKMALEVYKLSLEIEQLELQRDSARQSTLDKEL
T1 sequence (P20851 18-252): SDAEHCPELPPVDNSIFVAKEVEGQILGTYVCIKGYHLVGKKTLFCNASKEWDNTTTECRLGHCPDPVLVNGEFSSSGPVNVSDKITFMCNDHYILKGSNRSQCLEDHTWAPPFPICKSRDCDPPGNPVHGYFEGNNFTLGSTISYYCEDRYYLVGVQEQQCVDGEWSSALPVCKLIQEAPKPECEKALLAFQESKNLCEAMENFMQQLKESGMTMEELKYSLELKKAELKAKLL
Procedure: An alternative approach was used to test the ability of the peptides, PSP-loop, PSP-424K and PSP-428K, in comparison with that seen with the PSP-12 peptide, in inhibiting the binding of C4BP to PS. For this assay, the microtiter wells were coated with purified PS diluted to a concentration of 10 μg/ml in carbonate-coating buffer as described above. The wells were maintained to allow the PS to bind to the well walls. After the maintenance period, the wells were blocked also as described above. The selected PSP peptides were separately admixed at various concentrations ranging from 0-500 μM with biotinylated-C4BP (b-C4BP) at a concentration of 1 μg/ml. The admixtures were maintained on a fluid phase plate for 2 hours at room temperature to form peptide-C4BP complexes.
Fifty μl of the complexed admixtures were separately admixed to the prepared […] and maintained for 1 hour at room temperature. Thereafter, the plate was washed and processed for developing as described above.

[2] = biological target: T1, PS:C4BP complex; assay: Fluid-phase peptide inhibition of b-PS binding to C4BP, detected on anti-C4BP polyclonal antibody-coated plates
Procedure: (§1) An alternative approach was used to test the ability of the peptides, PSP-loop, PSP-424K and PSP-428K, in comparison with that seen with the PSP-12 peptide, in inhibiting the binding of PS to C4BP, the result of which was detected on polyclonal antibody-coated plates. For this assay, C4BP, biotinylated-PS (b-PS) and PSP peptides were admixed together at the respective concentrations of 3 μg/ml, 0.6 μg/ml and at a range of 0-500 μM (V:V:V). The admixtures were maintained for 2 hours at room temperature on a fluid phase plate to allow the binding and/or inhibition thereof of PS to C4BP by the PS-derived peptides. After the maintenance period, 50 μl of the admixture were separately admixed to wells previously coated with 10 μg/ml of anti-C4BP IgG polyclonal antibody. The admixtures were maintained for 1 hour at room temperature to allow for the binding of C4BP to C4BP-antibody-coated plates. The binding of biotinylated complexes to the antibody-coated plates was detected as described in Example 5Aii.

[3] = biological target: T1, PS:C4BP complex; assay: Fluid-phase peptide inhibition of PS binding to b-C4BP, detected on MAb S-7-coated plates; conditions: b-C4BP 0.5 μg/ml, PS 1.0 μg/ml
Procedure: as §1, with “monoclonal” for “polyclonal”, “biotinylated-C4BP (b-C4BP), PS” for “C4BP, biotinylated-PS (b-PS)”, “0.5” for “3”, “1.0” for “0.6”, “MAb S-7 (ATCC No. HB 80819).” for “anti-C4BP IgG polyclonal antibody.”, “MAb S-7-antibody-coated” for “C4BP-antibody-coated”

[4] = biological target: T2, interaction of protein S with C4BP (Homo sapiens, UniProt P04003+P20851); conditions: in vitro; Walker et al., Weinstein et al.; cited from earlier work
T2 sequence (P04003 49-597): T1 sequence (P04003 49-597)
T2 sequence (P20851 18-252): T1 sequence (P20851 18-252)

[5] = biological target: T1, PS:C4BP complex; assay: Peptide Inhibition Assay: b-PS binding to C4BP in solid-phase
Procedure: Each of the peptides produced as described in Example 1 and listed in Table 1 was analyzed for its ability to inhibit the binding of native protein S in liquid-phase to C4BP in solid-phase.
Microtiter wells of a 96 well plate were coated with 50 μl of 10 μg/ml purified C4BP in carbonate buffer (0.02M Na2 CO3, pH 9.0, 0.02% Na-Azide). After blocking with 10% BSA in TBS, 50 μl of different concentrations of peptides diluted in washing buffer (TBS, 0.2% BSA, 5mM CaCl, 0.02% Tween 20) were separately admixed to C4BP-coated wells. After 2 hours at room temperature, 50 μl of a solution of biotinylated protein S, were admixed to each well to form a second binding admixture having a final concentration of 2 μg/ml. The plate was agitated and the samples Were incubated 1 hour at room temperature. The samples were discarded and the wells were washed 3 times with washing buffer. […] The resulting optical densities of the reaction solutions were read as described before in Example 2C. […]
where I is expressed as a percent; and where 100%=delta/min of the amount of b-PS which specifically bound to C4BP-coated wells in the absence of any competing PS-peptide; and where deltaT =the change in absorbance (405 nm) in the presence of competing PS-peptide; and where deltaC =the change in absorbance (405 nm) in the absence of competing PS-peptide.

[6] = biological target: T3, C4BP (Homo sapiens, UniProt P04003+P20851); conditions: read-out: dissociation constant (Kd) for the protein S - C4BP interaction, cited from earlier work
T3 sequence (P04003 49-597): T1 sequence (P04003 49-597)
T3 sequence (P20851 18-252): T1 sequence (P20851 18-252)

IC90 [1]: ~250 µM | inhibition of binding of b-PS to C4BP compared with PSP-loop [2]: inhibitory but with lower effectiveness | IC90 [3]: ~250 µM
Compound: CC[C@H](C)[C@H](NC(=O)CNC(=O)[C@@H](N)CO)C(=O)N[C@@H](CCCCN)C(=O)N[C@@H](CCCCN)C(=O)N[C@H](C(=O)N[C@H](C(=O)N[C@@H](CCC(N)=O)C(=O)N[C@@H](CCC(=O)O)C(=O)N[C@@H](CCCCN)C(=O)N[C@@H](CCC(N)=O)C(=O)N[C@@H](CC(N)=O)C(=O)N[C@@H](CCCCN)C(=O)N[C@@H](CS)C(N)=O)[C@@H](C)CC)[C@@H](C)CC [PSP-424K, SGIKKIIQEKQNKC] (H-SGIKKIIQEKQNKC-NH2; N-terminus assumed)

Compound: CC[C@H](C)[C@H](NC(=O)[C@H](C)NC(=O)[C@H](CCC(=O)O)NC(=O)[C@H](CC(=O)O)NC(=O)[C@H](CC(C)C)NC(=O)[C@H](CC(=O)O)NC(=O)[C@H](CC(C)C)NC(=O)[C@H](CCC(N)=O)NC(=O)[C@@H](NC(=O)CN)C(C)C)C(N)=O [PSP-605, GVQLDLDEAI] (H-GVQLDLDEAI-NH2; N-terminus assumed)
inhibition of the interaction of protein S with C4BP [4]: inhibits the interaction of protein S with C4BP in vitro

Compound: CC[C@H](C)[C@@H]1NC(=O)[C@H](CO)NC(=O)[C@H](C)NC(=O)CNC(=O)[C@H](CCC(N)=O)NC(=O)[C@H](CCCCN)NC(=O)[C@H](CCSC)NC(=O)[C@H](CC(C)C)NC(=O)[C@H](CC(N)=O)NC(=O)[C@H](Cc2c[nH]c3ccccc23)NC(=O)[C@H](CO)NC(=O)[C@H](CCCNC(=N)N)NC(=O)[C@H]([C@@H](C)CC)NC(=O)[C@@H](N)CSSC[C@@H](C(N)=O)NC(=O)[C@H](Cc2c[nH]cn2)NC(=O)[C@H](CCCCN)NC(=O)[C@H](CC(N)=O)NC(=O)[C@H](CCC(N)=O)NC(=O)[C@H](CCCCN)NC(=O)[C@H](CCC(=O)O)NC(=O)[C@H](CCC(N)=O)NC(=O)[C@H]([C@@H](C)CC)NC(=O)[C@H]([C@@H](C)CC)NC(=O)[C@H](CCC(=O)O)NC(=O)[C@H](CCCCN)NC1=O [PSP-loop] (H-CIRSWNLMKQGASIKEIIQEKQNKHC-NH2; disulfide 1-26 (inferred); N-terminus and C-terminus assumed)
peptide concentration that completely inhibits the binding of PS to C4BP ([5]; subsequent experiments): approximately 250 μM | IC50 ([2]; C4BP 3 μg/ml, b-PS 0.6 μg/ml): ~40 µM

inhibition of PS:C4BP complex formation relative to PS-peptides from other regions of protein S [5]: strong inhibition
Compound: CPEGYRYNLKSKSC [PSP-7]

Compound: Protein S: vitamin K-dependent single chain plasma glycoprotein of 75,000 daltons, cofactor to activated protein C
Kd ([6]; in the presence of Ca++): 0.0006 µM | Kd ([6]; in the presence of EDTA): 0.001 µM
